Earlier results on 2 compounds are cited in patent US20080044504A1, “Pomegranate Juice, Pomegranate Juice Powder and Process for Producing the Powder” (Marukin Bio, Inc., priority 2004, published 2008).

In the data set the test system is estrogen receptor.

Each structure is given as a SMILES string. Like-named read-outs stand apart in the source and are kept apart here.

Consider `O=c1c(-c2ccc(O)cc2)coc2cc(O)ccc12` [daidzein], for which the “binding to the estrogen receptor” value (binding rate of DES defined as 100%) was 0.04%.

Regarding `O=c1c(-c2ccc(O)cc2)coc2cc(O)cc(O)c12` [genistein], the “binding to the estrogen receptor” value is recorded as 1.7%.
